Experimental data taken from patent publication US20140288052A1, “SUBSTITUTED BICYCLIC AZA-HETEROCYCLES AND ANALOGUES AS SIRTUIN MODULATORS” (GlaxoSmithKline, LLC, priority 2011, published 2014).

Legend:
SIRT1 [1] = target: T1, SIRT1 (Homo sapiens, UniProt Q96EB6); assay: TAMRA based mass spectrometry assay of SIRT1 deacetylase activation; format: biochemical; details: TAMRA peptide substrate; for TAMRA EC1.5 (μM): concentration that results in 150% activation of SIRT1; for TAMRA % Fold Act: percent maximum fold activation relative to control (100%)
T1 sequence (Q96EB6 1-747): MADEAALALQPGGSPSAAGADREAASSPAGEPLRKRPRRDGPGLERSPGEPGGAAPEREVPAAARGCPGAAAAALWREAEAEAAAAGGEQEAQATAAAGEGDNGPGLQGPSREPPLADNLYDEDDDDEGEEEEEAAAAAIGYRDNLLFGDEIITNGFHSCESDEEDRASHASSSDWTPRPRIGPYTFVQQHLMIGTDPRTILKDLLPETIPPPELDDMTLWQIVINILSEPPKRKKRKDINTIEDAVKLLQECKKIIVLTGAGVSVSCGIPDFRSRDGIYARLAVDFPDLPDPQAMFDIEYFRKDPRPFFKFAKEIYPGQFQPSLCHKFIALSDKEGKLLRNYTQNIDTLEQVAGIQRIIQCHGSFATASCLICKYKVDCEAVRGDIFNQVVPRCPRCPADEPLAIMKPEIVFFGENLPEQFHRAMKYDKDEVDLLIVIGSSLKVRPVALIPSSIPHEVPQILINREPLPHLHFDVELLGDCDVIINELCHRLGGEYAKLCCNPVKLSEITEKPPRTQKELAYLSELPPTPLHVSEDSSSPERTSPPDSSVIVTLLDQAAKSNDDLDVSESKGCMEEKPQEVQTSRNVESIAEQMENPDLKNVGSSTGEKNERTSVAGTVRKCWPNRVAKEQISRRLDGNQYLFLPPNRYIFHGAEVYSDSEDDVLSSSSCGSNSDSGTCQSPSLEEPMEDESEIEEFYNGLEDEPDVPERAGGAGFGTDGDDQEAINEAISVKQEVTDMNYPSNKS
Method in brief: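 E. coli-expressed N-terminal His-tagged human SIRT1 (10 nM) was incubated 25 min at 25 °C, pH 8 Tris-acetate buffer, with 0.5 μM TAMRA-labelled p53-derived acetyl-peptide, 120 μM NAD+ and varying compound; formic acid stop, mass-spec quantitation of deacetylated product vs DMSO controls. EC1.5 = concentration giving 150% activation.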

SIRT1 [2] = target: T1, SIRT1; assay: Trp mass spectrometry assay of SIRT1 deacetylase activation; format: biochemical; details: Trp peptide substrate; for TRP EC1.5 (μM): concentration that results in 150% activation of SIRT1; for TRP % Fold Act: percent maximum fold activation relative to control (100%)
Method in brief: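 His-tagged human SIRT1 (E. coli-expressed, 10 nM) was incubated with 0.5 μM Ac-RHKK(Ac)W-NH2 peptide and 120 μM βNAD+ for 25 min at 25 °C in HEPES pH 7.5, 1500 mM NaCl, with varying compound; formic acid quench. OAADPR or deacetylated peptide was quantified by mass spectrometry against DMSO control. EC1.5 (150% activation) and percent maximum activation were derived.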

| Compound | TAMRA EC1.5 (μM) (SIRT1 [1]) | TAMRA % Fold Act (SIRT1 [1]) | TRP EC1.5 (μM) (SIRT1 [2]) | TRP % Fold Act (SIRT1 [2]) |
| --- | --- | --- | --- | --- |
| O=C(Nc1ccnc2cc(-c3cccc(C(F)(F)F)c3)nn12)c1cscn1 [Compound 66] | C (EC1.5>25 μM) | B (Fold Activation<350%) | C (EC1.5>25 μM) | B (Fold Activation<350%) |
| O=C(Nc1ccnc2cc(-c3cccc(C(F)(F)F)c3)nn12)c1ccccn1 [Compound 70] | C (EC1.5>25 μM) | B (Fold Activation<350%) | C (EC1.5>25 μM) | B (Fold Activation<350%) |
| O=C(Nc1ccnc2cc(-c3cccc(C(F)(F)F)c3)nn12)c1ncccn1 [Compound 71] | B (EC1.5 1−25 μM) | B (Fold Activation<350%) | C (EC1.5>25 μM) | B (Fold Activation<350%) |
| O=C(Nc1ccnc2cc(-c3cccc(C(F)(F)F)c3)nn12)c1cccc(OCC(O)CO)n1 (centres unmarked) [Compound 74] | B (EC1.5 1−25 μM) | B (Fold Activation<350%) | B (EC1.5 1−25 μM) | B (Fold Activation<350%) |
| O=C(Nc1ccccn1)c1ccnc2cc(-c3ccccc3C(F)(F)F)nn12 [Compound 75] | B (EC1.5 1−25 μM) | A (Fold activation≧350%) | B (EC1.5 1−25 μM) | B (Fold Activation<350%) |
| O=C(Nc1cccnc1)c1ccnc2cc(-c3ccccc3C(F)(F)F)nn12 [Compound 76] | B (EC1.5 1−25 μM) | A (Fold activation≧350%) | B (EC1.5 1−25 μM) | B (Fold Activation<350%) |
| O=C(Nc1ccncc1)c1ccnc2cc(-c3ccccc3C(F)(F)F)nn12 [Compound 77] | B (EC1.5 1−25 μM) | A (Fold activation≧350%) | B (EC1.5 1−25 μM) | B (Fold Activation<350%) |
| O=C(Nc1ccncn1)c1ccnc2cc(-c3ccccc3C(F)(F)F)nn12 [Compound 78] | A (EC1.5<1 μM) | A (Fold activation≧350%) | B (EC1.5 1−25 μM) | B (Fold Activation<350%) |
| O=C(Nc1nccs1)c1ccnc2cc(-c3ccccc3C(F)(F)F)nn12 [Compound 79] | B (EC1.5 1−25 μM) | B (Fold Activation<350%) | A (EC1.5<1 μM) | B (Fold Activation<350%) |
| Cc1cnc(NC(=O)c2ccnc3cc(-c4ccccc4C(F)(F)F)nn23)s1 [Compound 80] | B (EC1.5 1−25 μM) | B (Fold Activation<350%) | C (EC1.5>25 μM) | B (Fold Activation<350%) |
| Cc1csc(NC(=O)c2ccnc3cc(-c4ccccc4C(F)(F)F)nn23)n1 [Compound 81] | B (EC1.5 1−25 μM) | B (Fold Activation<350%) | B (EC1.5 1−25 μM) | B (Fold Activation<350%) |
| O=C(Nc1cccc(N2CCOCC2)n1)c1ccnc2cc(-c3ccccc3C(F)(F)F)nn12 [Compound 82] | A (EC1.5<1 μM) | A (Fold activation≧350%) | C (EC1.5>25 μM) | B (Fold Activation<350%) |
| O=C(Nc1cccc(CN2CCOCC2)n1)c1ccnc2cc(-c3ccccc3C(F)(F)F)nn12 [Compound 83] | A (EC1.5<1 μM) | A (Fold activation≧350%) | B (EC1.5 1−25 μM) | B (Fold Activation<350%) |
| O=C(Nc1cccnc1)c1ccnc2cc(-c3cccc(C(F)(F)F)c3)nn12 [Compound 85] | C (EC1.5>25 μM) | B (Fold Activation<350%) | C (EC1.5>25 μM) | B (Fold Activation<350%) |
| O=C(Nc1ccncc1)c1ccnc2cc(-c3cccc(C(F)(F)F)c3)nn12 [Compound 86] | C (EC1.5>25 μM) | B (Fold Activation<350%) | C (EC1.5>25 μM) | B (Fold Activation<350%) |
| O=C(Nc1nccs1)c1ccnc2cc(-c3cccc(C(F)(F)F)c3)nn12 [Compound 87] | C (EC1.5>25 μM) | B (Fold Activation<350%) | C (EC1.5>25 μM) | B (Fold Activation<350%) |
| Cc1cnc(NC(=O)c2ccnc3cc(-c4cccc(C(F)(F)F)c4)nn23)s1 [Compound 88] | B (EC1.5 1−25 μM) | B (Fold Activation<350%) | C (EC1.5>25 μM) | B (Fold Activation<350%) |
| Cc1csc(NC(=O)c2ccnc3cc(-c4cccc(C(F)(F)F)c4)nn23)n1 [Compound 89] | C (EC1.5>25 μM) | B (Fold Activation<350%) | C (EC1.5>25 μM) | B (Fold Activation<350%) |
| O=C(Nc1cccc(N2CCOCC2)n1)c1ccnc2cc(-c3cccc(C(F)(F)F)c3)nn12 [Compound 90] | C (EC1.5>25 μM) | B (Fold Activation<350%) | C (EC1.5>25 μM) | B (Fold Activation<350%) |
| O=C(Nc1cccc(CN2CCOCC2)n1)c1ccnc2cc(-c3cccc(C(F)(F)F)c3)nn12 [Compound 91] | C (EC1.5>25 μM) | B (Fold Activation<350%) | C (EC1.5>25 μM) | B (Fold Activation<350%) |
| O=C(Nc1ccncn1)c1ccnc2cc(-c3cccc(C(F)(F)F)c3)nn12 [Compound 92] | C (EC1.5>25 μM) | B (Fold Activation<350%) | C (EC1.5>25 μM) | B (Fold Activation<350%) |
| O=C(Nc1ccnc2cc(-c3ccccc3C(F)(F)F)nn12)c1nccs1 [Compound 93] | B (EC1.5 1−25 μM) | B (Fold Activation<350%) | C (EC1.5>25 μM) | B (Fold Activation<350%) |
| Cn1cnc(C(=O)Nc2ccnc3cc(-c4ccccc4C(F)(F)F)nn23)c1 [Compound 94] | A (EC1.5<1 μM) | A (Fold activation≧350%) | C (EC1.5>25 μM) | B (Fold Activation<350%) |
| O=C(Nc1ccnc2cc(-c3cccc(C(F)(F)F)c3)nn12)c1nccs1 [Compound 95] | C (EC1.5>25 μM) | B (Fold Activation<350%) | C (EC1.5>25 μM) | B (Fold Activation<350%) |
| Cn1cnc(C(=O)Nc2ccnc3cc(-c4cccc(C(F)(F)F)c4)nn23)c1 [Compound 96] | B (EC1.5 1−25 μM) | B (Fold Activation<350%) | C (EC1.5>25 μM) | B (Fold Activation<350%) |
| O=C(Nc1ccnc2cc(-c3cccc(C(F)(F)F)c3)nn12)c1ccncn1 [Compound 97] | C (EC1.5>25 μM) | B (Fold Activation<350%) | C (EC1.5>25 μM) | B (Fold Activation<350%) |
